Among the data in PubChem BioAssay AID248 (DTP/NCI, 2004) are T/C values, retold here.

“And” between values parts separate entries of the source, which are not always exact repeats. Equal values may be shown once. Toxic doses and inconclusive results are not listed.

The assay concerns L1210 leukemia ip in BDF1 mice, survival T/C. Put plainly: NCI In Vivo Anticancer Drug Screen. Data for tumor model L1210 Leukemia (intraperitoneal) in B6D2F1 (BDF1) mice. The settings on record: endpoint: mean survival time, higher = longer survival. The method, boiled down: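 Tumor was transplanted into mice, which were then dosed with test compound or vehicle alone. Survival was recorded for each group, and the treated figure was expressed relative to the control figure.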

Setting [1] is: dose: 100.0 mg/kg/injection, schedule: Q01DX009 (ip), vehicle: Klucel (hydroxypropylcellulose) (HPC).
Where [2] appears, read: dose: 200.0 mg/kg/injection, schedule: Q01DX009 (ip), vehicle: Klucel (hydroxypropylcellulose) (HPC).
Setting [3] is: dose: 100.0 mg/kg/injection, schedule: Q04DX003 (ip), vehicle: saline with Tween-80.
Where [4] appears, read: dose: 200.0 mg/kg/injection, schedule: Q04DX003 (ip), vehicle: saline with Tween-80.
Where [5] appears, read: dose: 400.0 mg/kg/injection, schedule: Q04DX003 (ip), vehicle: saline with Tween-80.
Setting [6] is: dose: 100.0 mg/kg/injection, schedule: Q04DX003 (ip), vehicle: Klucel (hydroxypropylcellulose) (HPC).
Where [7] appears, read: dose: 200.0 mg/kg/injection, schedule: Q04DX003 (ip), vehicle: Klucel (hydroxypropylcellulose) (HPC).
The mark [8] stands for this setting: dose: 400.0 mg/kg/injection, schedule: Q04DX003 (ip), vehicle: Klucel (hydroxypropylcellulose) (HPC).
The mark [9] stands for this setting: dose: 100.0 mg/kg/injection, schedule: Q01DX009 (ip), vehicle: saline.
Setting [10] is: dose: 200.0 mg/kg/injection, schedule: Q01DX009 (ip), vehicle: saline.
The mark [11] stands for this setting: dose: 400.0 mg/kg/injection, schedule: Q01DX009 (ip), vehicle: saline.

As to `CCCCCCCCCC(=O)N/N=C/c1ccncc1`, the T/C by setting is: under setting [1], 89 % of control; under setting [2], 103 % of control.
With `Cc1ccc(S(=O)(=O)N(C)c2cc(Cl)c(C(=O)O)cc2Cl)cc1`, the T/C reads like this: (dose: 100.0 mg/kg/injection, schedule: Q04DX003 (ip), vehicle: acetone) 90 % of control; (dose: 200.0 mg/kg/injection, schedule: Q04DX003 (ip), vehicle: acetone) 93 % of control; (dose: 400.0 mg/kg/injection, schedule: Q04DX003 (ip), vehicle: acetone) 90 % of control.
Consider `CC12C=CC(CC1)C2O` (centres undefined), for which the T/C is 105 % of control (dose: 100.0 mg/kg/injection, schedule: Q01DX009 (ip), vehicle: saline with Tween-80); 100 % of control under setting [3]; 96 % of control (dose: 200.0 mg/kg/injection, schedule: Q01DX009 (ip), vehicle: saline with Tween-80); 96 % of control under setting [4]; 98 % of control under setting [5].
Take `COC(=O)C1C(=C(c2ccccc2)c2ccccc2)C1c1ccccc1` (centres undefined): the T/C runs as follows: (dose: 75.0 mg/kg/injection, schedule: Q04DX003 (ip), vehicle: Klucel (hydroxypropylcellulose) (HPC)) 96 % of control; (dose: 100.0 mg/kg/injection, schedule: Q01DX001 (ip), vehicle: Klucel (hydroxypropylcellulose) (HPC)) 95 % of control; (dose: 100.0 mg/kg/injection, schedule: Q01DX001 (ip), vehicle: steriod suspending solution) 93 % of control; (dose: 150.0 mg/kg/injection, schedule: Q04DX003 (ip), vehicle: Klucel (hydroxypropylcellulose) (HPC)) 94 % of control; (dose: 200.0 mg/kg/injection, schedule: Q01DX001 (ip), vehicle: Klucel (hydroxypropylcellulose) (HPC)) 95 % of control; (dose: 200.0 mg/kg/injection, schedule: Q01DX001 (ip), vehicle: steriod suspending solution) 98 % of control. Moreover, the T/C (dose: 300.0 mg/kg/injection, schedule: Q04DX003 (ip), vehicle: Klucel (hydroxypropylcellulose) (HPC)) is 100 % of control; the T/C (dose: 400.0 mg/kg/injection, schedule: Q01DX001 (ip), vehicle: Klucel (hydroxypropylcellulose) (HPC)) was 103 % of control; the T/C (dose: 400.0 mg/kg/injection, schedule: Q01DX001 (ip), vehicle: steriod suspending solution) was 95 % of control.
Take `Oc1cc(Br)ccc1C=Nc1ccc(N2CCCCC2)cc1`: the T/C reads like this: under setting [1], 92 % of control; under setting [6], 100 % of control; under setting [2], 94 % of control; under setting [7], 101 % of control; (dose: 400.0 mg/kg/injection, schedule: Q01DX009 (ip), vehicle: Klucel (hydroxypropylcellulose) (HPC)) 89 % of control; under setting [8], 103 % of control.
For `O=C(CNC(=O)c1ccc(C(=O)NCC(=O)Nc2ccc(C3=NCCN3)cc2)cc1)Nc1ccc(C2=NCCN2)cc1`, the T/C runs as follows: (dose: 1.87 mg/kg/injection, schedule: Q01DX015 (ip), vehicle: methylcellulose (MC)) 102 % of control; (dose: 3.75 mg/kg/injection, schedule: Q01DX015 (ip), vehicle: methylcellulose (MC)) 103 % of control; (dose: 7.5 mg/kg/injection, schedule: Q01DX015 (ip), vehicle: methylcellulose (MC)) 100 % of control; (dose: 10.0 mg/kg/injection, schedule: Q01DX015 (ip), vehicle: methylcellulose (MC)) 102 % of control; (dose: 62.0 mg/kg/injection, schedule: Q01DX Z (ip), vehicle: carboxymethylcellulose (CMC)) 188 % of control; (dose: 125.0 mg/kg/injection, schedule: Q01DX Z (ip), vehicle: carboxymethylcellulose (CMC)) 233 % of control. Further, the T/C is 154 % of control (dose: 150.0 mg/kg/injection, schedule: Q01DX001 (ip), vehicle: methylcellulose (MC)); 106 % of control (dose: 250.0 mg/kg/injection, schedule: Q01DX Z (ip), vehicle: carboxymethylcellulose (CMC)); 158 % of control (dose: 300.0 mg/kg/injection, schedule: Q01DX001 (ip), vehicle: methylcellulose (MC)); 187 % of control and 201 % of control and 207 % of control (dose: 600.0 mg/kg/injection, schedule: Q01DX001 (ip), vehicle: methylcellulose (MC)); 174 % of control and 262 % of control (dose: 900.0 mg/kg/injection, schedule: Q01DX001 (ip), vehicle: methylcellulose (MC)).
Take `O=C(O)COc1cc(F)ccc1[N+](=O)[O-]`: the T/C reads like this: (dose: 100.0 mg/kg/injection, schedule: Q04DX002 (ip), vehicle: Klucel (hydroxypropylcellulose) (HPC)) 91 % of control; (dose: 200.0 mg/kg/injection, schedule: Q04DX002 (ip), vehicle: Klucel (hydroxypropylcellulose) (HPC)) 102 % of control; (dose: 400.0 mg/kg/injection, schedule: Q04DX002 (ip), vehicle: Klucel (hydroxypropylcellulose) (HPC)) 107 % of control.
Consider `NC(N)=NCCCC(N=Cc1ccccc1)C(=O)O` (centres undefined), for which the T/C under setting [9] is 97 % of control, the T/C under setting [10] is 101 % of control and the T/C under setting [11] was 98 % of control.
In the case of `O=C1C=C(Nc2cccc(Cl)c2)C(=O)N1c1cccc(Cl)c1`, the T/C is, setting by setting: (dose: 75.0 mg/kg/injection, schedule: Q04DX003 (ip), vehicle: other) 106 % of control; (dose: 150.0 mg/kg/injection, schedule: Q04DX003 (ip), vehicle: other) 91 % of control; (dose: 300.0 mg/kg/injection, schedule: Q04DX003 (ip), vehicle: other) 90 % of control.
Turning to `NC(=O)c1n[nH]nc1N1CC[N+](CCCl)=N1`, the T/C is 110 % of control (dose: 44.0 mg/kg/injection, schedule: Q01DX009 (ip), vehicle: saline with Tween-80); 111 % of control (dose: 50.0 mg/kg/injection, schedule: Q01DX009 (ip), vehicle: saline with Tween-80); 105 % of control (dose: 50.0 mg/kg/injection, schedule: Q04DX003 (ip), vehicle: saline with Tween-80); 107 % of control (dose: 67.0 mg/kg/injection, schedule: Q01DX009 (ip), vehicle: saline with Tween-80); 96 % of control under setting [9]; 97 % of control and 113 % of control under setting [3]. Besides, the T/C reads like this: (dose: 100.0 mg/kg/injection, schedule: Q04DX003 (ip), vehicle: saline) 107 % of control; (dose: 150.0 mg/kg/injection, schedule: Q01DX009 (ip), vehicle: saline with Tween-80) 112 % of control; under setting [10], 91 % of control; under setting [4], 118 % of control and 121 % of control; (dose: 200.0 mg/kg/injection, schedule: Q04DX003 (ip), vehicle: saline) 105 % of control; under setting [11], 95 % of control. The T/C runs as follows: under setting [5], 113 % of control; (dose: 400.0 mg/kg/injection, schedule: Q04DX003 (ip), vehicle: saline) 94 % of control.
For `Cc1cccc(OS(=O)(=O)c2ccccc2[N+](=O)[O-])c1`, the T/C is, setting by setting: (dose: 100.0 mg/kg/injection, schedule: Q01DX009 (ip), vehicle: saline sonified) 103 % of control; under setting [6], 93 % of control; under setting [7], 96 % of control; (dose: 400.0 mg/kg/injection, schedule: Q01DX009 (ip), vehicle: saline sonified) 111 % of control; under setting [8], 90 % of control.
As for `CCCC(C)NCCOC(=O)Nc1ccccc1` (centres undefined), the T/C is 91 % of control (dose: 75.0 mg/kg/injection, schedule: Q01DX001 (ip), vehicle: saline) and 101 % of control (dose: 150.0 mg/kg/injection, schedule: Q01DX001 (ip), vehicle: saline).
Take `CC12CCC3c4ccc(OC(=O)c5ccc(N)cc5)cc4CCC3C1CCC2=O` (centres undefined): the T/C was 110 % of control (dose: 12.5 mg/kg/injection, schedule: Q04DX002 (ip), vehicle: saline with Tween-80); 106 % of control (dose: 25.0 mg/kg/injection, schedule: Q04DX002 (ip), vehicle: saline with Tween-80); 95 % of control (dose: 50.0 mg/kg/injection, schedule: Q04DX002 (ip), vehicle: saline with Tween-80); 95 % of control (dose: 100.0 mg/kg/injection, schedule: Q01DX001 (sc), vehicle: steriod suspending solution); 97 % of control (dose: 200.0 mg/kg/injection, schedule: Q01DX001 (sc), vehicle: steriod suspending solution); 95 % of control (dose: 400.0 mg/kg/injection, schedule: Q01DX001 (sc), vehicle: steriod suspending solution).
For `O=C(NCCCl)NNC(=O)c1ccccc1`, the T/C under setting [6] is 117 % of control and the T/C under setting [7] was 112 % of control.
